In patent US20150366813A1, “LIQUID-FILLED IMMEDIATE RELEASE SOFT GELATIN CAPSULES” (Banner Life Sciences LLC, priority 2014, published 2015):
Counter-ions that a name gives are not always drawn.

Test: Particle size distribution of micronized and non-micronized dabigatran etexilate mesylate
Assay type: physicochemical
Conditions: DEM particle diameter distribution
Text: Examples of dabigatran etexilate mesylate particle size useful for the pharmaceutical composition described herein are shown in Table 9. The distribution of dabigatran etexilate mesylate particle sizes is set forth by the diameter distribution in either micronized or non-micronized samples. The dissolution of micronized and non-micronized dabigatran etexilate mesylate particles was studied using the matrix fill corresponding to DEM A as shown in Table 8 encapsulated in a hard gelatin capsule.

| Particle size D(v, 0.1) [μm] | Particle size D(v, 0.5) [μm] | Particle size D(v, 0.9) [μm] | Structure (SMILES) |
| --- | --- | --- | --- |
| 1.5 | 4.2 | 10.5 | CCCCCCOC(=O)N=C(N)c1ccc(NCc2nc3cc(C(=O)N(CCC(=O)OCC)c4ccccn4)ccc3n2C)cc1 [Micronized, dabigatran etexilate mesylate] |
| 4.7 | 20.8 | 50.1 | CCCCCCOC(=O)N=C(N)c1ccc(NCc2nc3cc(C(=O)N(CCC(=O)OCC)c4ccccn4)ccc3n2C)cc1 [Non-micronized, dabigatran etexilate mesylate] |
